For experiment [1], the target named is T1, Thrombus (Rattus norvegicus, UniProt P02680+P06399+P14480).
T1 construct: thrombin cleaves fibrinopeptides on fibrinogen resulting in an end-to-end polymerization to give the polymer fibrin; A day old autologous blood clot was injected into the right internal carotid artery; from tissue; host or cells: autologous blood clot in the right internal carotid artery of Wistar rats
T1 sequence (P06399 37-550 isoform P06399-2 limits assumed): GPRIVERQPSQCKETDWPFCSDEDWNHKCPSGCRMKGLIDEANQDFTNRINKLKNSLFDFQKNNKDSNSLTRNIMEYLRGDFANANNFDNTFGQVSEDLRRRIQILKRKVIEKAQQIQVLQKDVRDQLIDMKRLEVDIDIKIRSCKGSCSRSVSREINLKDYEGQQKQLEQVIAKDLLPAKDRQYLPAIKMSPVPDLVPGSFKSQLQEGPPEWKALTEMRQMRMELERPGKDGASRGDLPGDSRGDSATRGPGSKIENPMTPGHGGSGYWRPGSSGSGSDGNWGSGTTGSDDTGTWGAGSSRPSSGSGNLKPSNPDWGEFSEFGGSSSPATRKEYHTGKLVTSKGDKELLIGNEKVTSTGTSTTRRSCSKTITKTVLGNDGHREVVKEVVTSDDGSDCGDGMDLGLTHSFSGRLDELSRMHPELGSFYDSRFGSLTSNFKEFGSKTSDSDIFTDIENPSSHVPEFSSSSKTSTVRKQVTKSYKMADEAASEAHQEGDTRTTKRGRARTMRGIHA
T1 sequence (P14480 33-479 limits assumed): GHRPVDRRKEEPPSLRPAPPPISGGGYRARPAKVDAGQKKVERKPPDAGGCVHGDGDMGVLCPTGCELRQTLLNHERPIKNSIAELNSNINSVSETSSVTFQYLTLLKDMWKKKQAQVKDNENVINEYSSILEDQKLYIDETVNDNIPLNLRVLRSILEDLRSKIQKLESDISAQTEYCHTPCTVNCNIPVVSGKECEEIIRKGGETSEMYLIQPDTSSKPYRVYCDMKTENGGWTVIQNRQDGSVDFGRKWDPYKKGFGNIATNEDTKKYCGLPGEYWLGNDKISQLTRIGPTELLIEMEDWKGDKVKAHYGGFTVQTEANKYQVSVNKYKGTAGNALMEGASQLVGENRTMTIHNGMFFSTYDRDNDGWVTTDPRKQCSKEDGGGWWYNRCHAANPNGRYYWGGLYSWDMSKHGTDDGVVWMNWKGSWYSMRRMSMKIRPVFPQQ
T1 sequence (P02680 26-437 isoform P02680-2 limits assumed): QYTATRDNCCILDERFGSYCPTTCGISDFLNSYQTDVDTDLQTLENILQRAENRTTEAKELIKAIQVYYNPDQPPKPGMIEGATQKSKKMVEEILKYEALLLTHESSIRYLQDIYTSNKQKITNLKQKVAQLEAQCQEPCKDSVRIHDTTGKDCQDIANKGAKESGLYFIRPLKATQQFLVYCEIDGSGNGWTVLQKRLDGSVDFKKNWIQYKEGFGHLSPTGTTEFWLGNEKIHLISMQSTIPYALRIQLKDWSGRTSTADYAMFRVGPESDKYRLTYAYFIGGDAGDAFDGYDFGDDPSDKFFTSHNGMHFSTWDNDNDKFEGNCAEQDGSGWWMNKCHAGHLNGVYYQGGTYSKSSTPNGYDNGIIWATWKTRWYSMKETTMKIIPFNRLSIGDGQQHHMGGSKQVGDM
It counts as in vivo. To be noted: ex vivo, 2 h post-injection. Here is the method: All animal studies were approved by the Subcommittee on Research Animal Care at Massachusetts General Hospital. The occlusive thrombus model was described previously (Zhang R L, Chopp M, Zhang Z G, Jiang Q, and Ewing J R., Brain Res. 1997 766(1-2):83-92). Briefly, male Wistar rats (350-400 g, n=8; Charles River Laboratories, Wilmington, Mass.) were anaesthetized with isoflurane (1-2% in 70% N2O and 30% O2) and body temperature was kept at 37.5° C. A day old autologous blood clot was injected into the right internal carotid artery (ICA) at the level of the middle cerebral artery (MCA). The femoral vein was cannulated for intravenous delivery of the contrast agent. […]
The ipsilateral (containing the thrombus) and contralateral ICA and MCA, cerebral hemispheres, blood, urine, intraabdominal organs, rectus femoris muscle and femur bone were collected from all the animals, weighed and radioactivity measured on a gamma counter. The percent of the injected dose per gram of tissue (% ID/g) was calculated by dividing the counts of ^64Cu/g of tissue by the total counts of the injected dose, based on an aliquot of the injected dose, with correction for radioactive decay. Tissues were later homogenized in nitric acid and analyzed for Gd concentration by inductively coupled plasma-mass spectrometry (ICP-MS).

Experiment [2] has as its system Thrombus. The experiment can be described thus: MR-PET imaging in a rabbit model of occlusive arterial thrombus. The format is in vivo. The settings on record: i.v., MR angiogram with gadofosveset. Here is the method: The occlusive thrombus model was similar to the one described above. Briefly, a male New Zealand white rabbit (2.5 kg) was sedated with a mixture of ketamine and xylazine and anaesthetized with isoflurane (1-2% in 70% N2O and 30% O2) and body temperature was kept at 37.5° C. A day old autologous blood clot was injected into the right internal carotid artery (ICA). The femoral vein was cannulated for intravenous delivery of the imaging agents. Simultaneous PET and MR were acquired on a clinical 3T MRI-BrainPET scanner using a home-built receive surface coil and a CP transmit coil. After baseline MR scans were acquired, the compound 21 was administered at a dose of […]. The blood pool MR contrast agent gadofosveset was injected at a dose of 0.1 mmol Gd/kg to acquire an angiographic image.

Take Gd3-EP-2104R-Cu [Compound 21]: the “Concentration of 64Cu in thrombus relative to contralateral vessel, blood plasma, brain, or muscle” value on Thrombus [1] (p<0.005) is listed as “at least 4 fold”. Further, the “Gd concentration in thrombus relative to contralateral vessel, blood plasma, brain, or muscle” value at Thrombus [1] (ICP-MS, p<0.0001) is reported as “over 6 fold”. In addition, the “PET signal at occluded right internal carotid artery” value with Thrombus [2] was “hyperintense PET signal in the right internal carotid (ICA)”.

Source of the values: patent publication US9200017B2, “Multimodal imaging of fibrin” (The General Hospital Corporation, priority 2009, dated 2015).
